Numbers after ± are expanded uncertainties.
Key:
[1] = mn = molality of the nth substance listed, in mol/kg; details: 298.15 K, 101 kPa, Liquid, Pycnometric method
[2] = refractive index (Na D-line) (dimensionless); mn = molality of the nth substance listed, in mol/kg; details: 298.15 K, 101 kPa, Liquid, Standard Abbe refractometry

| mass density ([1]; m1 = 1.821) | refractive index ([2]; m1 = 1.821) | mass density ([1]; m1 = 4.734) | refractive index ([2]; m1 = 4.734) | Compound |
| --- | --- | --- | --- | --- |
| 1074.1 ± 1.1 kg/m3 | 1.3439 ± 0.0004 |  |  | N[C@@H](CS)C(=O)O [(R)-2-amino-3-mercaptopropanoic acid] + O |
|  |  | 1242.1 ± 1.1 kg/m3 | 1.4155 ± 0.0004 | NCCCC[C@H](N)C(=O)O [L-lysine] + O |

Reference: the NIST ThermoML archive (doi:10.1021/acs.jced.5b00393)
